Patent publication US12233161B1, “Lipids and lipid nanoparticle formulations” (LONGUIDE BIOPHARMA CORPORATION, priority 2024, dated 2025)
Blank lines part the entries; values can stand above or below the compound they belong to.

Assays:
[1] = Particle size and PDI of nucleic acid lipid nanoparticle preparations by dynamic light scattering; format: physicochemical
Experimental: The 7.5 μL nucleic acid lipid nanoparticle solution (containing approximately 0.04 mg/mL mRNA) was taken and added with 200 μL ultrapure water, mixed by gentle blowing using a pipette tip, and the particle size of the nanopreparation was detected by dynamic lightscattering (DLS) using a Malvern Dynamic Light Scattering Instrument (Malvern Instruments Ltd., ZEN3700, UK).
27.5 μL nucleic acid lipid nanoparticle solution (containing about 0.04 mg/mL mRNA) was taken and added with 200 μL ultrapure water. A pipette tip was used to gently blow the sample and mix well. The particle size of the nanopreparation was detected by Malvern Dynamic Light Scattering Instrument (Malvern Instruments Ltd., ZEN3700, UK). After the detection, the sample was recovered to an EP tube, and 600 μL of ultrapure water was added, gently blown with a pipette tip, and the potential of the nanopreparation was measured by a Malvern particle size meter.

mice = test: In vivo delivery of FLuc-mRNA lipid nanoparticles in mice, in vivo imaging (IVIS); conditions: for in vivo delivery efficiency as compared to the benchmark compound SM102: certain formulations, Table 2
How it was run: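 Mice (n=3) received about 75 μL FLuc-mRNA LNP per mouse intramuscularly (rectus femoris), intravenously (tail vein), intraperitoneally or subcutaneously (back). After injection, D-luciferin (200 μL, 15 mg/mL) was given i.p. 10-15 min before IVIS imaging.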

[2] = DMG-PEG2000:DSPC:Chol:Lipid 1.40:11.15:38.95:48.50, N/P 45, mRNA LNP
[3] = DMG-PEG2000:DSPC:Chol:Lipid 1.77:14.07:49.16:35.00, N/P 45, mRNA LNP
[4] = DMG-PEG2000:DSPC:Chol:Lipid 1.40:11.15:38.95:48.50, N/P 60, mRNA LNP
[5] = DMG-PEG2000:DSPC:Chol:Lipid 1.77:14.07:49.16:35.00, N/P 60, mRNA LNP
[6] = DMG-PEG2000:DSPC:Chol:Lipid 1.00:11.50:22.50:65.00, N/P 45, mRNA LNP
[7] = DMG-PEG2000:DSPC:Chol:Lipid 1.00:16.00:48.00:35.00, N/P 30, mRNA LNP
[8] = DMG-PEG2000:DSPC:Chol:Lipid 1.00:11.50:22.50:65.00, N/P 45, IV, liver
[9] = DMG-PEG2000:DSPC:Chol:Lipid 1.00:11.50:22.50:65.00, N/P 45, IV, lung
[10] = DMG-PEG2000:DSPC:Chol:Lipid 1.00:11.50:22.50:65.00, N/P 45, IV, spleen
[11] = DMG-PEG2000:DSPC:Chol:Lipid 1.00:16.00:48.00:35.00, N/P 30, IV, liver
[12] = DMG-PEG2000:DSPC:Chol:Lipid 1.00:16.00:48.00:35.00, N/P 30, IV, lung
[13] = DMG-PEG2000:DSPC:Chol:Lipid 1.00:16.00:48.00:35.00, N/P 30, IV, spleen
[14] = DMG-PEG2000:DSPC:Chol:Lipid 1.40:11.15:38.95:48.50, N/P 48, mRNA LNP
[15] = DMG-PEG2000:DSPC:Chol:Lipid 1.77:14.07:49.16:35.00, N/P 48, mRNA LNP

PDI [1, 2]: 0.16 ± 0.02
Particle size [1, 2]: 148.37 ± 1.40 nm
PDI [1, 3]: 0.14 ± 0.01
Particle size [1, 3]: 121.47 ± 0.72 nm
Compound: CCCCCCCCCCCCNC(=O)C(O)CN(CCCN(CC(O)C(=O)NCCCCCCCCCCCC)CC(O)C(=O)NCCCCCCCCCCCC)CCCN(CC(O)C(=O)NCCCCCCCCCCCC)CC(O)C(=O)NCCCCCCCCCCCC (stereo not drawn) [Compound L0267]
IVIS (mice; DMG-PEG2000:DSPC:Chol:Lipid 1.40:11.15:38.95:48.50, N/P 45, IV, whole body scan): 3.89 × 10^5
IVIS (mice; DMG-PEG2000:DSPC:Chol:Lipid 1.77:14.07:49.16:35.00, N/P 45, IM, whole body scan): 1.05 × 10^6

PDI [1, 4]: 0.07 ± 0.01
Particle size [1, 4]: 116.83 ± 1.07 nm
PDI [1, 5]: 0.08 ± 0.01
Particle size [1, 5]: 95.36 ± 0.61 nm
Compound: CCCCCCCCCCNC(=O)C(O)CN(CCCN(CC(O)C(=O)NCCCCCCCCCC)CC(O)C(=O)NCCCCCCCCCC)CCCN(CC(O)C(=O)NCCCCCCCCCC)CC(O)C(=O)NCCCCCCCCCC (stereo not drawn) [Compound L0268]
IVIS (mice; DMG-PEG2000:DSPC:Chol:Lipid 1.40:11.15:38.95:48.50, N/P 60, IV, whole body scan): 3.80 × 10^5
IVIS (mice; DMG-PEG2000:DSPC:Chol:Lipid 1.77:14.07:49.16:35.00, N/P 60, IM, whole body scan): 5.86 × 10^5

PDI [1, 6]: 0.06 ± 0.01
Particle size [1, 6]: 128.20 ± 0.89 nm
PDI [1, 7]: 0.11 ± 0.01
Particle size [1, 7]: 125.17 ± 1.03 nm
PDI [1, 2]: 0.10 ± 0.01
Particle size [1, 2]: 142.10 ± 0.78 nm
Compound: CCCCCCCCCCCCOC(=O)C(O)CN(CCCN(CC(O)C(=O)OCCCCCCCCCCCC)CC(O)C(=O)OCCCCCCCCCCCC)CCCN(CC(O)C(=O)OCCCCCCCCCCCC)CC(O)C(=O)OCCCCCCCCCCCC (stereo not drawn) [Compound L0269]
IVIS (mice; DMG-PEG2000:DSPC:Chol:Lipid 1.00:11.50:22.50:65.00, N/P 45, IV, body): 9.49 × 10^8
% of organ targeting (mice; [8]): 69.52%
IVIS (mice; [8]): 2.05 × 10^8
% of organ targeting (mice; [9]): 0.64%
IVIS (mice; [9]): 1.88 × 10^6
% of organ targeting (mice; [10]): 29.84%
IVIS (mice; [10]): 8.80 × 10^7
IVIS (mice; DMG-PEG2000:DSPC:Chol:Lipid 1.00:16.00:48.00:35.00, N/P 30, IV, body): 5.46 × 10^8
% of organ targeting (mice; [11]): 28.77%
IVIS (mice; [11]): 7.87 × 10^7
% of organ targeting (mice; [12]): 0.33%
IVIS (mice; [12]): 8.92 × 10^5
% of organ targeting (mice; [13]): 70.91%
IVIS (mice; [13]): 1.94 × 10^8
IVIS (mice; DMG-PEG2000:DSPC:Chol:Lipid 1.40:11.15:38.95:48.50, N/P 45, IM, whole body scan): 3.83 × 10^7
in vivo delivery efficiency as compared to the benchmark compound SM102 (mice): superior in vivo delivery efficiency

PDI [1, 14]: 0.12 ± 0.00
Particle size [1, 14]: 131.00 ± 1.32 nm
PDI [1, 15]: 0.10 ± 0.03
Particle size [1, 15]: 144.83 ± 1.39 nm
Compound: CCCCCCOCOCCCCCCOC(=O)C(O)CN(CCCN(CC(O)C(=O)OCCCCCCOCOCCCCCC)CC(O)C(=O)OCCCCCCOCOCCCCCC)CCCN(CC(O)C(=O)OCCCCCCOCOCCCCCC)CC(O)C(=O)OCCCCCCOCOCCCCCC (stereo not drawn) [Compound L0270]
IVIS (mice; DMG-PEG2000:DSPC:Chol:Lipid 1.40:11.15:38.95:48.50, N/P 48, IM, whole body scan): 2.09 × 10^7
IVIS (mice; DMG-PEG2000:DSPC:Chol:Lipid 1.40:11.15:38.95:48.50, N/P 48, IV, whole body scan): 1.56 × 10^9
IVIS (mice; DMG-PEG2000:DSPC:Chol:Lipid 1.77:14.07:49.16:35.00, N/P 48, IH, whole body scan): 2.89 × 10^6
in vivo delivery efficiency as compared to the benchmark compound SM102 (mice): superior in vivo delivery efficiency
